Read-outs that look alike come from different tables or passages of the source.
What was measured:
Water solubility test = format: physicochemical; conditions: for Solubility (%): purified water, from amount of water required for dissolution
Protocol: Each sample compound was weighed in the amount shown in Table 3, to which purified water was added in 0.05 mL aliquots. The solubility (%) of the compound was determined based on the amount of water required for its dissolution.

[1] = Oral absorbability test on rats and/or mice; format: in vivo; conditions: orally administered to mice and/or rats, as in Experiment 3, FIGS. 2 to 6
Protocol: (§1) The compound of Example 83 and the comparative compound 3 were suspended at 2 mg/mL with a 0.5% MC solution in mortars, respectively, and were orally administered to male SD rats at 10 mg/5 mL/kg. Upon elapsed time of 0.25, 0.5, 1, 2, 4, 6 and 8 hours after the administration, blood samples were collected and then centrifuged to provide plasma samples. The plasma levels of the respective compounds were determined by HPLC. […] The compound of Example 83 is, therefore, useful as an orally dosable medicine.
In a similar manner as in Experiment 3, test compounds of Examples 23, 25, 143, 193, 245, 246, 247, 248 and 249 were orally administered to mice and/or rats to test their oral absorbability.

[2] = test system: interleukin-1β production; test: Inhibitory activity against interleukin-1β production (LPS-stimulated HL-60 cells, ELISA); format: cell-based; conditions: lipopolysaccharide 10 μg/mL, 3 days, Table 1, read-out: IL-1β production inhibiting activity IC50
Protocol: Inhibitory Activity Against Interleukin-1β Production
HL-60 cells were cultured for 4 days until confluence on RPMI 1640 medium with 10% fetal bovine serum (FBS) added thereto. The medium was centrifuged. The supernatant was discarded, and the cells were then suspended at 1×10^6 cells/mL on RPMI 1640 medium with 3% FBS, and lipopolysaccharide was added to give a final concentration of 10 μg/mL. The culture was inoculated at 1 mL/well to a 24-well plate. A sample compound was added at 1 μL/well, followed by culturing for 3 days. Three days later, the amount of interleukin-1β in each culture was determined by ELISA. Each IC50 value was determined by a comparison in yield with a control to which no test sample was added.

[3] = Oral absorbability test on rats; format: in vivo; conditions: male SD rats, oral 10 mg/5 mL/kg, suspension in 0.5% MC, 0.25-8 hours, FIG. 1
Protocol: as §1

SMILES	Solubility (%) (Water solubility test)	Oral absorbability [1]	IC50 [2] [µM]	IC50 ([2]; Homo sapiens, 72 h) [µM]	melting point	Oral absorption (plasma level by HPLC) [3]	Dissolution in amount of added water (Water solubility test; 100 mL purified water added)
COc1ccc(-c2cc(CN(CCO)CCO)c(=O)n(CC3CC3)n2)cc1F.Cl [Example 23, 4-N,N-bis(2-hydroxyethyl)aminomethyl-2-cyclopropylmethyl-6-(3-fluoro-4-methoxyphenyl)-2H-pyridazin-3-one hydrochloride]	10	good absorbability	12.3				
COc1ccc(-c2cc(CN3CCNCC3)c(=O)n(Cc3ccc(F)cc3)n2)cc1F.Cl.Cl [Example 193, 2-(4-fluorobenzyl)-6-(3-fluoro-4-methoxyphenyl)-4-(1-piperazinyl)methyl-2H-pyridazin-3-one dihydrochloride]	5	good absorbability					
COc1ccc(-c2cc(CN3CCN(C)CC3)c(=O)n(CC=Cc3ccc(Cl)cc3)n2)cc1F.Cl.Cl [Example 248, 2-(4-chlorocinnamyl)-6-(3-fluoro-4-methoxyphenyl)-4-(4-methyl-1-piperazinyl)methyl-2H-pyridazin-3-one dihydrochloride]	0.06	good absorbability					
COc1ccc(-c2cc(CN3CCN(CCO)CC3)c(=O)n(CC=Cc3ccc(Cl)cc3)n2)cc1F.Cl.Cl [Example 249, 2-(4-chlorocinnamyl)-6-(3-fluoro-4-methoxyphenyl)-4-[4-(2-hydroxyethyl)-1-piperazinyl]methyl-2H-pyridazin-3-one dihydrochloride]	0.03	good absorbability					
Cc1cc(-c2cc(CN3CCN(C)CC3)c(=O)n(CC=Cc3ccc(Cl)cc3)n2)ccc1F.Cl.Cl [Example 143, 2-(4-chlorocinnamyl)-6-(4-fluoro-3-methylphenyl)-4-(4-methyl-1-piperazinyl)methyl-2H-pyridazin-3-one dihydrochloride]	10	good absorbability		8.55	229.7 to 243.3 °C (dec.)		
COc1ccc(-c2cc(CN)c(=O)n(CC3CC3)n2)cc1F.Cl [Example 25, 4-aminomethyl-2-cyclopropylmethyl-6-(3-fluoro-4-methoxyphenyl)-2H-pyridazin-3-one hydrochloride]	0.4	good absorbability		2.74			
COc1ccc(-c2cc(CN3CCN(C)CC3)c(=O)n(Cc3ccc(F)c(F)c3)n2)cc1F.Cl.Cl [Example 245, 2-(3,4-difluorobenzyl)-6-(3-fluoro-4-methoxyphenyl)-4-(4-methyl-1-piperazinyl)methyl-2H-pyridazin-3-one dihydrochloride]	10	good absorbability					
Cc1cc(-c2cc(CN3CCN(C)CC3)c(=O)n(CC(C)C)n2)ccc1F.Cl.Cl [Example 83, 6-(4-fluoro-3-methylphenyl)-2-isobutyl-4-(4-methyl-1-piperazinyl)methyl-2H-pyridazin-3-one dihydrochloride]				0.27		good absorption	
Cc1cc(-c2cc(CN3CCN(C)CC3)c(=O)n(CCCc3ccc(Cl)cc3)n2)ccc1F.Cl.Cl [Example 247, 2-[3-(4-chlorophenyl)propyl]-6-(4-fluoro-3-methylphenyl)-4-(4-methyl-1-piperazinyl)methyl-2H-pyridazin-3-one dihydrochloride]	10	good absorbability					
CNC(=O)c1cc(-c2ccc(OC)c(F)c2)nn(CC2CC2)c1=O [compound 3, reference compound]	<0.001					no substantial absorption	(insoluble)
COc1ccc(-c2cc(CN(C)C)c(=O)n(Cc3ccc(F)c(F)c3)n2)cc1F.Cl [Example 246, 2-(3,4-difluorobenzyl)-4-dimethylaminomethyl-6-(3-fluoro-4-methoxyphenyl)-2H-pyridazin-3-one hydrochloride]	2	good absorbability					

Reference: patent publication US6861428B2, “Water-soluble phenylpyridazine compounds and compositions containing the same” (Kowa Co., Ltd., priority 2001, dated 2005)
